{
  "source": "patent US20070274915A1",
  "about": "“Modulation Of Anergy And Methods For isolating Anergy-Modulating Compounds” (priority 2003, published 2007)",
  "key": {"D5 T cells": {"tested_on": "D5 T cells", "experiment": "Ionomycin-induced anergy in D5 Th1 cells, immunoblot of signaling proteins and E3 ligases", "type": "cell-based, murine", "protocol": "(§1) The murine D5 (Ar-5) Th1 cell clone was grown as previously described (F. Macian et al., Cell 109, 719-31 (2002). CD4+ cells were isolated from spleen and lymph nodes of DO11.10 or 2B4 TCR-transgenic mice using positive selection with anti-CD4 magnetic beads (Dynal), and differentiated into Th1 cells for 2 weeks using standard protocols (id.). Anergy was induced by treating primary Th1 cells or the D5 Th1 clone (10^6 cells/ml) with 1 μM ionomycin for 16 hours, Cyclosporin A was included in some experiments at a concentration of 2 μM. The cells were then washed to remove the ionomycin and incubated at higher cell density (˜3×10^6 cells/ml) for 1-2 hours at 37 C. In the experiment of FIG. 14, a high-density incubation step was included. The extent of anergy induction was evaluated by intracellular cytokine staining or in standard proliferation assays (id.). Restimulation of D5 cells was done with 1 μg/ml anti-CD3 with or without 2.5 μg/ml anti-CD28 or with 20 nM PMA or 1 μM Ionomycin or both. HEK 293 cells were grown and transfected with Ca2+ phosphate using standard protocols.\nD5 cells were extracted at 10^6 cells/10 μl in RIPA buffer (20 mM Tris pH 7.5, 250 mM NaCl, 1 mM DTT, 10 mM MgCl2, 1% Nonidet P-40, 0.1% SDS, 0.5% sodium deoxycholate) supplemented with protease and phosphatase inhibitors (1 mM PMSF, 25 μg/ml aprotinin, 25 μg/ml leupeptin, 10 mM NaF, 8 mM β glycerophosphate, 0,1 mM sodium ortho vanadate). For assessing protein levels in cell extracts, 5-30 μl of RIPA extracts were separated on 9-12% SDS-polyacrylamide gels, and proteins were electrotransferred onto nitrocellulose membranes. For immunoprecipitations, 500-1000 μl of RIPA cell extracts were used. For coimmunoprecipitations from lysates of transfected HEK 293 cells, cells from one 10 cm dish were lysed in 50 mM Hepes pH 7.5, 100 mM NaCl, 1 mM EDTA, 0,5% NP-40 and 10% glycerol including phosphatase and protease inhibitors. Lysates were precleared with either protein A- or protein G-Sepharose, immunoprecipitations were performed for 4 hrs and the resulting precipitates were washed 3-4 times with the buffer used for cell extraction. Immunoblots were performed with antibody solutions in 5% milk and TBS (10 mM TrisCl (pH 8.0), 150 mM NaCl) and washes were done in TBS containing 0.05% Tween-20."}, "[1]": {"tested_on": "Th1 cells from BALB/c mice", "experiment": "Pulse-chase of PKCθ in Th1 cells", "type": "cell-based", "conditions": "ionomycin 16 h, pulse-chase with plate-bound anti-CD3", "protocol": "FIG. 21 is a set of autoradiograms illustrating calcineurin-dependent degradation of PKCθ in anergic T cells. Th1 cells from BALB/c mice were left untreated or pretreated with ionomycin for 16 h, pulse-labeled for 2 h with ^35S cysteine/methionine, washed and stimulated with plate-bound anti-CD3 antibody during the indicated chase periods. PKCθ immunoprecipitates were analyzed by autoradiography.\nCD4 cells were isolated via dynal beads selection, cells were starved for 1 hr in cysteine/methionine free media and incubated for 2 hrs with 100 μCi/ml 35S-cysteine and -methionine. Cells were washed, resuspended in complete media and stimulated with 2 μg/ml anti-CD3 on crosslinking antibody coated plates. Cells were extracted in RIPA buffer and immunoprecipitations performed as described above. Immunoprecipitates were resolved on SDS-PAGE, that were treated with Enhance solution (NEN), dried and used for autoradiographs. Densitometric analysis was performed using IQ-Mac vs 1.2 software."}, "[2]": {"tested_on": "TH1 cells from 5CC7 TCR-transgenic mice", "experiment": "Immune synapse formation by 5CC7 TCR-transgenic TH1 cells on lipid bilayers", "type": "cell-based", "conditions": "5CC7 T cells pretreated with ionomycin for 16 h", "protocol": "(§2) Planar bilayers were prepared essentially as described in (Grakoui et al., Science 285, 221-7 (1999)), except that the MCC88-103 peptide was loaded on the GPI-IEk for 24 hours. Bilayers were prepared using Oregon green labeled GPI-IEk and Cy5 labeled GPI-ICAM-1 in parallel plate flow cells (Bioptechs). Control and ionomycin treated cells were injected into the flow cell at a density of 10^6 cells/ml. Areas of bilayers where cells were forming synapses were imaged using FITC and Cy5 optics on an Olympus IX-70 inverted microscope equipped with a amamtsu ORCA-ER digital camera and a Xenon-arc lamp as a light source for fluorescence microscopy. […] Bright field, interference reflection (IRM) and fluorescence images were collected and processed using the Metamorph software. The background from the fluorescence images was subtracted using the produce background correction image function which is based on median filtering to subtract background that is nonuniform. Percentage of cells adhering were analyzed by comparing bright field and IRM images.\nThe formation of immune synapses was evaluated as described for the experiments shown in FIG. 19, with TH1 cells from wild-type or Cblb−/− 5CC7 TCR-transgenic mice and lipid bilayers displaying ICAM-1 and I-Ek pigeon cytochrome C (PCC) molecules. […] Below the image series is a histogram that quantifies the imaging results. […]"}, "D5 cells": {"tested_on": "D5 cells", "experiment": "Real-time RT-PCR of E3 ligase and PLC-γ1 mRNA levels in D5 cells", "type": "cell-based, murine", "conditions": "ionomycin-treated T cells", "protocol": "Total RNA was prepared from untreated or ionomycin-pretreated D5 cells using Ultraspec reagent (Biotecx). cDNAs were synthesized from 2 μg of total RNA as template, using a cDNA synthesis kit (Invitrogen). Quantitative real time-PCR was performed in an I-Cycler (BioRad) using a SYBR Green PCR kit (Applied Biosystems). The sequences of the primer pairs are as follows:\nThermal cycling conditions were 95° C. for 5 min, then 40 cycles of 95° C., 65° C., and 72° C. for 30 sec each, terminating with a single cycle at 72° C. for 5 min. Signals were captured during the polymerization step (72° C.). A threshold was set in the linear part of the amplification curve, and the number of cycles needed to reach it was calculated for each gene. Melting curve analysis and agarose gel electrophoresis were performed to test the purity of the amplified bands. Normalization was performed by using L32 levels as an internal control for each sample. The ratio of mRNA levels in ionomycin-treated or ionomycin/CsA treated to untreated samples were determined."}, "HEK 293 cells": {"tested_on": "HEK 293 cells", "experiment": "PLC-γ1 ubiquitination in transfected HEK 293 cells", "type": "cell-based", "conditions": "3 μM ionomycin for 30 min", "protocol": "FIG. 17C is a chart and a set of immunoblots illustrating that Itch induces mono-, di- and poly-ubiquitination of PLC-γ1. HEK 293 cells were transfected in duplicate with expression vectors coding for HA-tagged ubiquitin, AU.1-tagged PLC-γ1 and/or myc-tagged Itch as indicated, and one culture of each pair was stimulated with 3 μM ionomycin for 30 min before cell extraction. Cell extracts were immunoprecipitated with AU.1 antibodies and analyzed for ubiquitin-modified or total immunoprecipitated PLC-γ1 (upper two panels), or were directly analyzed for PLC-γ1 and Itch expression by immunoblotting (lower two panels).\nas §1, with “The extent of anergy induction was evaluated by intracellular cytokine staining or in standard proliferation assays (id.). Restimulation of D5 cells was done with 1 μg/ml anti-CD3 with or without 2.5 μg/ml anti-CD28 or with 20 nM PMA or 1 μM Ionomycin or both. HEK 293 cells were grown and transfected with Ca2+ phosphate using standard protocols.” left out"}, "AND T cell blasts": {"tested_on": "AND T cell blasts", "experiment": "Stability of mature immunological synapses on lipid bilayers after phospholipase inhibitors", "type": "cell-based", "protocol": "as §2\nExperiments using phospholipase inhibitors were performed using AND T cell blasts (day 8). […] After 60 minutes, fields containing stable immunological synapses with central MHC clusters (green) and complete ICAM-1 rings (red) were imaged and the locations recorded using an automated stage and IPLab software. […]"}},
  "note": "Where a SMILES comes first, the peptide text is derived from it. The star is where a group is joined. Cbz = O=C(OCc1ccccc1)*",
  "data": [
    {"compound": "CC(C)C[C@@H](C=O)NC(=O)[C@H](CC(C)C)NC(=O)[C@H](CC(C)C)NC(=O)OCc1ccccc1", "note": "[MG132] (Cbz-Leu-Leu-Leu-aldehyde)", "values": [
      {"measurement": "PLC-γ1 degradation", "setting": "D5 T cells; ionomycin 16 h, then incubation with 10 μM MG132", "result": "did not prevent"},
      {"measurement": "accumulation of a modified (mono-ubiquitinated) form of PKCθ", "setting": "D5 T cells; only in anergized T cells, long exposure", "result": "increased the accumulation"}
    ]},
    {"compound": "C[C@H](CCC(=O)O)C[C@H](C)C[C@H](C)C(=O)/C=C(\\O)[C@H](C)C[C@H](C)C/C=C/[C@@H](C)[C@@H](O)[C@@H](C)[C@@H](O)C[C@@H]1CC[C@@](C)([C@H]2CC[C@@](C)([C@@H](C)O)O2)O1", "note": "[ionomycin]", "values": [
      {"measurement": "PKCθ turnover versus mock-treated T cells", "setting": "[1]", "result": "significantly more rapidly"},
      {"measurement": "synapse stability", "setting": "[2]", "result": "synapse disorganization"},
      {"measurement": "time to form the mature synapse on contact with the bilayer", "setting": "[2]", "result": "< 5", "unit": "min"},
      {"measurement": "PLC-γ1, PKCθ and RasGAP protein levels", "setting": "D5 T cells; D5 T cells, ionomycin pretreatment followed by cell-cell contact, immunoblot", "result": "pronounced decrease"},
      {"measurement": "increase in total protein ubiquitination", "setting": "D5 T cells; ionomycin pretreatment, D5 T cells", "result": "~2", "unit": "fold"},
      {"measurement": "Cbl-b protein induction", "setting": "D5 T cells; ionomycin-treated D5 cells", "result": "even more highly induced"},
      {"measurement": "Itch protein levels, increase", "setting": "D5 T cells; ionomycin-treated D5 cells", "result": "~3", "unit": "fold"},
      {"measurement": "Nedd4 protein levels", "setting": "D5 T cells; ionomycin-treated D5 cells", "result": "no change"},
      {"measurement": "Tsg101 protein levels, increase", "setting": "D5 T cells; ionomycin-treated D5 cells", "result": "~3", "unit": "fold"},
      {"measurement": "PLC-γ1 mRNA levels", "setting": "D5 cells", "result": "remained constant"},
      {"measurement": "PLC-γ1 ubiquitination", "setting": "HEK 293 cells", "result": "induced PLC-γ1 ubiquitination"}
    ]},
    {"compound": "COc1ccc2c(c1)CC[C@@H]1[C@@H]2CC[C@]2(C)[C@@H](NCCCCCCN3C(=O)C=CC3=O)CC[C@@H]12", "note": "[U73122]", "values": [
      {"measurement": "U73122 concentrations at which the effects were observed", "setting": "AND T cell blasts; 3 independent experiments", "result": "0.1 to 1", "unit": "µM"},
      {"measurement": "effect on established mature synapses", "setting": "AND T cell blasts; added after mature synapses formed", "result": "disintegration of the outer LFA-1 ring"}
    ]}
  ]
}
